{
  "source": "patent US5283246A",
  "about": "“Trimetazidine compounds” (Adir et Compagnie, priority 1991, dated 1994)",
  "key": {"isolated hearts of rats": {"tested_on": "isolated hearts of rats", "assay": "Hypoxia reoxygenation on the isolated heart of a rat", "set-up": "species or system Wistar rat", "description": "The hearts of male Wistar rats (325-375 g--Charles River breed) anaesthetized by the intraperitoneal route with sodium pentobarbital (30 mg/kg) are removed after the injection of heparin i.v. (1 ml/kg) and rapidly perfused by the Langendorff technique at a constant pressure of 76 mmhg and stimulated electrically at 5 Hz. The isovolumetric contractions are recorded by way of a small polyethylene balloon connected to a pressure sensor (P23-Gould) introduced into the left ventricle and inflated so as to obtain a diastolic pressure of approximately 10 mmhg. The physiological solution used, maintained at 37° C., has the following composition (mM): NaCl 118; KCl 4.7; KH2 PO4 1.2; MgCl2 1.2; CaCl2 1.3; NaHCO3 25; glucose 8, pH 7.4/95% O2 +5% CO2.\nAfter a period of stabilization of from 15 to 30 minutes, the heart is subjected to hypoxia for 60 minutes (effected with 95% N2 and 5% CO2; PO2 <40 mmHg), followed by reoxygenation for 30 minutes; the compound is added to the incubation medium 15 minutes before and during the period of hypoxia."}, "cardiac cells": {"tested_on": "cardiac cells", "assay": "Oxidative necrosis of cardiac cells induced by hypoxanthine/xanthine-oxidase (XO + HX)", "assay_type": "cell-based, rat (newborn)", "settings": "Rattus norvegicus, 4 h", "description": "The cardiac cells of newborn rats are used between the 5th and 6th days after placing in culture. Oxidative necrosis is induced by the free radical-producing enzymatic system hypoxanthine (HX, 1 -mm) and xanthineoxidase (XO, 10 mU/ml). The necrosis is evaluated 4 hours after the addition of XO/HX by measuring by spectrophotometry the cytosolic α-hydroxybutyrate dehydrogenase (a-HBDH) activity liberated in the supernatant. The cells are treated with the test compounds 16 hours and 1 hour before the beginning of the experiment after renewing the medium. At the beginning of the experiment, the treatment is carried out again one last time.\nTable 3 lists the necrosis indices of cardiac cells induced by the hypoxanthine/xanthine-oxidase system alone or in the presence of increasing concentrations of the compounds of the invention."}, "rat aorta": {"tested_on": "rat aorta", "assay": "Study on isolated vessels: vascular relaxing effect on a rat aorta contracted by potassium (80 mM)", "set-up": "species or system Wistar rat", "settings": "rat aorta rings without endothelium contracted by potassium (80 mM)", "description": "The thoracic aorta of Wistar rats (325-375 g) that have been anaesthetized by the intraperitoneal route with sodium pentobarbital (30 mg/kg) is removed and dissected into rings 3 mm in length; the endothelium is removed by gentle abrasion using a piece of wood. Each ring is connected to a Statham pressure sensor (UC2-Gould). The initial pressure applied is 2.5 g. The physiological solution used, maintained at 37° C., has the following composition (mM): NaCl 112; KCl 5; KH2 PO4 1; MgSO4 1.2; CaCl2 2.5; NaHCO3 25; glucose 11.; EDTA 0.026. After a stabilization period of 90 minutes, the aorta rings are subjected to a hyperpotassic medium (80 MM KCl and 37 mM NaCl). When the contraction is stable, cumulative concentrations of compound are added to the medium every 15 minutes. The relaxation values obtained enable calculation of the IC50."}, "human LDLs": {"tested_on": "human LDLs", "assay": "Modification of human LDLs by copper sulphate (lipid peroxidation, MDA production)", "assay_type": "biochemical", "settings": "copper sulphate 5×10^-6 M, 24 hours; read-out: IC50, inhibition of copper-induced modification (MDA production) of human LDLs", "description": "Human LDLs are incubated for 24 hours in the presence of copper sulphate (5×10^-6 M) and in the absence or presence of the compounds tested (10^-7 M to 10^-4 M). After incubation, the peroxidation of the LDLs is evaluated by electrophoresis on agar gel and by the formation of one of the products of lipid peroxidation malonic dialdehyde (MDA), (Parthasarathy S., Young S. G., Witztum J. L., Pittman R. C. and Steinberg, D.; J. Clin. invest. 77; 641-644, 1986).\nThe activity of the tested compounds is evaluated by calculating those concentrations (IC50) that reduce the production of MDA by 50% compared with control experiments in the absence of the tested compound."}, "pigs": {"tested_on": "pigs", "assay": "Myocardial ischaemia induced by coronary stenosis in pigs", "assay_type": "in vivo, Large White pig", "description": "The study is carried out on \"Large White\" pigs of both sexes aged 3 months and weighing 21 to 26 kg. The animals are tranquillized using midazolam (I mg/kg i.m.), then anaesthetized with sodium thiopental (8 mg/kg i.v.). The anaesthesia is maintained by a perfusion of 6 to 8 mg/kg/h. They are immediately intubated and ventilated with a mixture of air+O2. A \"T\" thoracotomy is carried out by longitudinal section of the sternum and incision between the 4th and 5th rib. The heart is suspended in a pericardial cradle made by cutting and fixing the pericardium at four points to the thoracic muscles. An electromagnetic flow ring is placed around the anterior interventricular branch of the left coronary, and a small pneumatic balloon is placed immediately downstream of that ring. This assembly is for the purpose of effecting coronary stenosis by controlling the flow. Piezoelectric crystals connected to a Triton sonomicrometer are implanted in the lower endocardium of the left ventricular wall according to a circumferential plane perpendicular to the cardiac axis. These crystals are for recording the regional myocardial contractility and endocardial ECGs in the area supplied by the stenosed coronary artery. Epicardial ECGs are also recorded in those areas by means of electrodes fixed to the myocardium. Myocardial ischaemia is effected by inflating the small balloon which induces a reduction in flow of 50 to 60 Two identical 3 minute stenoses with reproducible and reversible effects are carried out, separated by a recovery period of 55 minutes. The treatment is administered by five minutes' perfusion by the venous route 10 minutes before the stenosis perfusion of solvent before first stenosis perfusion of the compound or solvent before the second stenosis. The regional myocardial contractility is determined by the fraction of systolic shortening of the segment lengths comprised between the piezoelectric crystals. The hypokinesis in the ischaemic zone is expressed as a percentage variation in relation to the contractility measured in the control period. The modification of the epicardial and endocardial ECGs in the ischaemic zone consists in a superelevation of the segment S.T. measured in millivolts (mV)."}, "[1]": {"settings": "1 mg/kg intravenous before second stenosis, compared with first stenosis"}},
  "data": [
    {"smiles": "COc1ccc(CN2CCN(CCCCCOc3cc(C)c(O)c(C)c3C)CC2)c(OC)c1OC", "note": "[Example 10, 4-(2,3,4-trimethoxybenzyl)-l-[5-(4-hydroxy-2,3,5-trimethylphenoxy)pentyl]piperazine]", "values": [
      {"measurement": "functional recovery of the hearts during reoxygenation", "setting": "isolated hearts of rats; Example 1 at 3×10^-7 M, 10 at 10^-7 M, 13 at 7×10^-7 M, 40% in the control experiments", "result": "more than 70%"},
      {"measurement": "reduction of the developing contracture at the end of 30 minutes reoxygenation", "setting": "isolated hearts of rats; end of 30 min reoxygenation, Example 1 at 3×10^-7 M, 10 at 10^-7 M, 13 at 7×10^-7 M, vs control", "result": "more than 70%"},
      {"measurement": "Contracture, hypoxia 10 min", "setting": "isolated hearts of rats; hypoxia 10 min, Example 1 at 3 × 10^-7 M, Example 10 at 10^-7 M, Example 13 at 7 × 10^-7 M, control 23.7 ± 6.8", "result": "15.3 ± 3.7", "unit": "mm Hg"},
      {"measurement": "Contracture, hypoxia 30 min", "setting": "isolated hearts of rats; hypoxia 30 min, Example 1 at 3 × 10^-7 M, Example 10 at 10^-7 M, Example 13 at 7 × 10^-7 M, control 33.7 ± 8.9", "result": "16.0 ± 6.4", "unit": "mm Hg"},
      {"measurement": "Contracture, hypoxia 60 min", "setting": "isolated hearts of rats; hypoxia 60 min, Example 1 at 3 × 10^-7 M, Example 10 at 10^-7 M, Example 13 at 7 × 10^-7 M, control 32.3 ± 7.4", "result": "14.7 ± 4.4", "unit": "mm Hg"},
      {"measurement": "Contracture, reoxygenation 15 min", "setting": "isolated hearts of rats; reoxygenation 15 min, Example 1 at 3 × 10^-7 M, Example 10 at 10^-7 M, Example 13 at 7 × 10^-7 M, control 20.6 ± 7.8", "result": "7.3 ± 5.5", "unit": "mm Hg"},
      {"measurement": "Contracture, reoxygenation 30 min", "setting": "isolated hearts of rats; reoxygenation 30 min, Example 1 at 3 × 10^-7 M, Example 10 at 10^-7 M, Example 13 at 7 × 10^-7 M, control 12.3 ± 6.1", "result": "2.7 ± 2.7", "unit": "mm Hg"},
      {"measurement": "activity at 10 µM", "setting": "cardiac cells; 10^-5 M, XO + HX, control XO + HX = 100.0, read-out: necrosis index of cardiac cells, XO + HX, compound 10^-5 M", "result": "12.6 ± 1.3", "unit": "%"},
      {"measurement": "activity at 1 µM", "setting": "cardiac cells; 10^-6 M, XO + HX, control XO + HX = 100.0, read-out: necrosis index of cardiac cells, XO + HX, compound 10^-6 M", "result": "18.8 ± 3.7", "unit": "%"},
      {"measurement": "activity at 0.1 µM", "setting": "cardiac cells; 10^-7 M, XO + HX, control XO + HX = 100.0, read-out: necrosis index of cardiac cells, XO + HX, compound 10^-7 M", "result": "88.8 ± 0.4", "unit": "%"},
      {"measurement": "minimal effective concentration", "setting": "cardiac cells; XO + HX induced oxidative necrosis, read-out: concentration at which compounds prove to be protective against necrosis", "result": "≥ 0.1", "unit": "µM"},
      {"measurement": "IC50", "setting": "rat aorta", "result": 2000, "unit": "nM"},
      {"measurement": "IC50", "setting": "human LDLs", "result": 30, "unit": "nM"},
      {"measurement": "ST superelevation, endocardial ECG, second stenosis (ST2)", "setting": "pigs; 1 mg/kg i.v. before second stenosis, ST1 (solvent) of same group 3.4 ± 0.4, control ST2 2.4 ± 0.51", "result": "1.9 ± 0.5", "unit": "mV"},
      {"measurement": "ST superelevation, epicardial ECG, second stenosis (ST2)", "setting": "pigs; 1 mg/kg i.v. before second stenosis, ST1 (solvent) of same group 4.6 ± 1.0, control ST2 3.16 ± 1.2", "result": "2.5 ± 0.6", "unit": "mV"},
      {"measurement": "% residual myocardial contractility, second stenosis (ST2)", "setting": "pigs; 1 mg/kg i.v. before second stenosis, ST1 (solvent) of same group 20.4 ± 3.3, control ST2 25.2 ± 3.0", "result": "29.4 ± 2.6", "unit": "%"},
      {"measurement": "improvement in the regional contractility in the ischaemic zone", "setting": "pigs; [1]", "result": 50, "unit": "%"},
      {"measurement": "reduction of the superelevation of the segment ST, endocardial electrocardiogram", "setting": "pigs; [1]", "result": 45, "unit": "%"},
      {"measurement": "reduction of the superelevation of the segment ST, epicardial electrocardiogram", "setting": "pigs; [1]", "result": 45, "unit": "%"}
    ]}
  ]
}
